Experimental data published in ChEMBL document CHEMBL3351535, “Identification of novel phenyl butenonyl C-glycosides with ureidyl and sulfonamidyl moieties as antimalarial agents” (ACS Med Chem Lett, 2014).

Tests used:
[1] = Cytotoxicity against african green monkey Vero cells after 2 days by resazurin assay; format: cell-based; conditions: chlorocebus sabaeus
Plasmodium falciparum [2] = test: Antimalarial activity against Plasmodium falciparum K1 after 72 hrs by SYBR Green fluorescence assay; format: functional, organism-based; conditions: K1, 72 h
Plasmodium falciparum [3] = test: Antimalarial activity against Plasmodium falciparum 3D7 after 72 hrs by SYBR Green fluorescence assay; format: functional, organism-based; conditions: 3D7, 72 h
Heme = test: Inhibition of heme polymerization in Plasmodium yoelii nigeriensis infected erythrocytes (unknown origin) extract at 100 uM after 4 hrs by spectrophotometry
[4] = Terminal elimination half-life in Sprague-Dawley rat at 5 mg/kg, iv; format: ADME, organism-based; design: dose 5 mg/kg, route intravenous; conditions: in vivo, read-out: beta t1/2 (converted)
[5] = Systemic clearance in Sprague-Dawley rat at 5 mg/kg, iv; format: ADME, organism-based; design: dose 5 mg/kg, route intravenous; conditions: in vivo
[6] = Volume of distribution in Sprague-Dawley rat at 5 mg/kg, iv; format: ADME, organism-based; design: dose 5 mg/kg, route intravenous; conditions: in vivo

| IC50 (Plasmodium falciparum [2]) | IC50 (Plasmodium falciparum [3]) | inhibition (Heme) | half-life [4] | clearance [5] | Vd [6] | Compound | CC50 at 48 h [1] |
| --- | --- | --- | --- | --- | --- | --- | --- |
| 5.28 µM | 5.91 µM | – | – | – | – | O=C(/C=C/c1ccc(NC(=O)Nc2ccc3ccccc3c2)cc1)C[C@@H]1O[C@H](CO)[C@@H](O)[C@H](O)[C@H]1O | 1020 µM |
| 2.3 µM | 1.83 µM | – | – | – | – | CC(=O)OC[C@H]1O[C@@H](CC(=O)/C=C/c2ccc(NC(=S)Nc3ccccc3)cc2)[C@H](OC(C)=O)[C@@H](OC(C)=O)[C@@H]1OC(C)=O | 663 µM |
| > 20 µM | 13.8 µM | – | – | – | – | O=C(Nc1ccccc1)Nc1ccccc1 | 352 µM |
| 2.47 µM | 3.35 µM | – | – | – | – | COc1cc([N+](=O)[O-])ccc1NC(=S)Nc1cccc(/C=C/C(=O)C[C@@H]2O[C@H](CO)[C@@H](O)[C@H](O)[C@H]2O)c1 | 203 µM |
| 3 µM | 1.39 µM | – | – | – | – | CC(=O)O[C@@H]1[C@@H](OC(C)=O)[C@H](OC(C)=O)CO[C@H]1CC(=O)/C=C/c1cccc(NS(=O)(=O)c2ccc(C)cc2)c1 | 268 µM |
| 5.55 µM | 5.27 µM | – | – | – | – | CC(=O)OC[C@H]1O[C@@H](CC(=O)/C=C/c2ccc(NC(=O)Nc3ccccc3)cc2)[C@H](OC(C)=O)[C@@H](OC(C)=O)[C@@H]1OC(C)=O | 820 µM |
| 5.36 µM | 2.18 µM | – | – | – | – | CC(=O)OC[C@H]1O[C@@H](CC(=O)/C=C/c2ccc(NC(=O)Nc3ccc4ccccc4c3)cc2)[C@H](OC(C)=O)[C@@H](OC(C)=O)[C@@H]1OC(C)=O | 482 µM |
| 18 µM | > 20 µM | – | – | – | – | COc1ccc(NC(=O)Nc2ccccc2)c([N+](=O)[O-])c1 | 356 µM |
| 6.35 µM | 2.93 µM | – | – | – | – | Cc1ccc(S(=O)(=O)Nc2cccc(/C=C/C(=O)C[C@@H]3OC[C@@H](O)[C@H](O)[C@H]3O)c2)cc1 | 94.7 µM |
| 7.81 µM | 6.65 µM | – | – | – | – | CC(=O)OC[C@H]1O[C@@H](CC(=O)/C=C/c2cccc(NC(=O)Nc3ccccc3)c2)[C@@H](OC(C)=O)[C@@H](OC(C)=O)[C@@H]1OC(C)=O | 102 µM |
| 13.4 µM | 8.8 µM | – | – | – | – | CCOC(=O)/C=C/c1cccc(NC(=O)Nc2ccccc2)c1 | 293 µM |
| – | – | – | – | – | – | CCN(CC)CCCC(C)Nc1ccnc2cc(Cl)ccc12 (centres undefined) [CHLOROQUINE] | 685 µM |
| 7.66 µM | 7.51 µM | – | – | – | – | O=C(/C=C/c1ccc(NC(=O)Nc2ccccc2)cc1)C[C@@H]1O[C@H](CO)[C@@H](O)[C@H](O)[C@H]1O | 1130 µM |
| 4.23 µM | 0.94 µM | 92.7% | – | – | – | COc1ccc(NC(=O)Nc2cccc(/C=C/C(=O)C[C@@H]3O[C@H](COC(C)=O)[C@@H](OC(C)=O)[C@H](OC(C)=O)[C@H]3OC(C)=O)c2)c([N+](=O)[O-])c1 | 730 µM |
| 3.39 µM | 3.77 µM | – | – | – | – | O=C(/C=C/c1cccc(NC(=O)Nc2ccccc2)c1)C[C@@H]1O[C@H](CO)[C@@H](O)[C@H](O)[C@H]1O | 373 µM |
| 8.69 µM | 6.89 µM | – | – | – | – | O=C(/C=C/c1cccc(NC(=S)Nc2ccccc2)c1)C[C@@H]1OC[C@@H](O)[C@H](O)[C@H]1O | 289 µM |
| 7.2 µM | 9.43 µM | – | – | – | – | O=C(/C=C/c1cccc(NC(=S)Nc2ccccc2)c1)C[C@@H]1O[C@H](CO)[C@@H](O)[C@H](O)[C@H]1O | 371 µM |
| 1.58 µM | 0.56 µM | – | 7.1 h | 17 mL/min/kg | 2.8 L/kg | COc1ccc(NC(=O)Nc2cccc(/C=C/C(=O)C[C@@H]3O[C@H](CO)[C@@H](O)[C@H](O)[C@H]3O)c2)c([N+](=O)[O-])c1 | 709 µM |

| IC50 (Plasmodium falciparum [2]) | IC50 (Plasmodium falciparum [3]) | inhibition (Heme) | half-life [4] | clearance [5] | Vd [6] | Compound | CC50 at 48 h [1] |
| --- | --- | --- | --- | --- | --- | --- | --- |
| 17.8 µM | 13.1 µM | – | – | – | – | O=C(/C=C/c1cccc(NC(=S)Nc2ccccc2)c1)C[C@@H]1O[C@H](CO)[C@@H](O)[C@H](O)[C@@H]1O | 336 µM |
| 0.42 µM | 0.55 µM | 72.1% | – | – | – | COc1cc([N+](=O)[O-])ccc1NC(=S)Nc1cccc(/C=C/C(=O)C[C@@H]2O[C@H](COC(C)=O)[C@@H](OC(C)=O)[C@H](OC(C)=O)[C@H]2OC(C)=O)c1 | 559 µM |
| 13.8 µM | 11.8 µM | – | – | – | – | O=C(/C=C/c1ccc(NC(=S)Nc2ccccc2)cc1)C[C@@H]1O[C@H](CO)[C@@H](O)[C@H](O)[C@H]1O | 274 µM |
| 20 µM | 20 µM | – | – | – | – | O=C(/C=C/c1cccc(NC(=O)Nc2ccccc2)c1)C[C@@H]1O[C@H](CO)[C@@H](O)[C@H](O)[C@@H]1O | – |
| 4.92 µM | 3.17 µM | 76.9% | – | – | – | CC(=O)O[C@@H]1[C@@H](OC(C)=O)[C@H](OC(C)=O)CO[C@H]1CC(=O)/C=C/c1cccc(NC(=O)Nc2ccccc2)c1 | 102 µM |
| 16.1 µM | 16.1 µM | – | – | – | – | CCOC(=O)/C=C/c1cccc(NS(=O)(=O)c2ccc(C)cc2)c1 | 77.1 µM |
| 5.57 µM | 4.2 µM | – | – | – | – | CC(=O)O[C@@H]1[C@@H](OC(C)=O)[C@H](OC(C)=O)CO[C@H]1CC(=O)/C=C/c1cccc(NC(=S)Nc2ccccc2)c1 | 58.7 µM |
| > 20 µM | > 20 µM | – | – | – | – | Cc1ccc(S(=O)(=O)Nc2ccccc2)cc1 | 221 µM |
| 2.4 µM | 2.29 µM | 72.5% | – | – | – | CC(=O)OC[C@H]1O[C@@H](CC(=O)/C=C/c2cccc(NC(=O)Nc3ccccc3)c2)[C@H](OC(C)=O)[C@@H](OC(C)=O)[C@@H]1OC(C)=O | 180 µM |
| 2.17 µM | 1.14 µM | – | – | – | – | CC(=O)OC[C@H]1O[C@@H](CC(=O)/C=C/c2cccc(NS(=O)(=O)c3ccc(C)cc3)c2)[C@H](OC(C)=O)[C@@H](OC(C)=O)[C@@H]1OC(C)=O | 584 µM |
| 5.11 µM | 3.89 µM | – | – | – | – | Cc1ccc(S(=O)(=O)Nc2cccc(/C=C/C(=O)C[C@@H]3O[C@H](CO)[C@@H](O)[C@H](O)[C@@H]3O)c2)cc1 | 417 µM |
| 2.87 µM | 3.73 µM | – | – | – | – | CC(=O)OC[C@H]1O[C@@H](CC(=O)/C=C/c2cccc(NC(=S)Nc3ccccc3)c2)[C@@H](OC(C)=O)[C@@H](OC(C)=O)[C@@H]1OC(C)=O | 65.1 µM |
| 5.43 µM | 3.44 µM | – | – | – | – | O=C(/C=C/c1cccc(NC(=O)Nc2ccccc2)c1)C[C@@H]1OC[C@@H](O)[C@H](O)[C@H]1O | 309 µM |
| 5.19 µM | 3.96 µM | – | – | – | – | CC(=O)OC[C@H]1O[C@@H](CC(=O)/C=C/c2cccc(NS(=O)(=O)c3ccc(C)cc3)c2)[C@@H](OC(C)=O)[C@@H](OC(C)=O)[C@@H]1OC(C)=O | 123 µM |
| 3.87 µM | 2.2 µM | – | – | – | – | Cc1ccc(S(=O)(=O)Nc2cccc(/C=C/C(=O)C[C@@H]3O[C@H](CO)[C@@H](O)[C@H](O)[C@H]3O)c2)cc1 | 381 µM |
| > 20 µM | > 20 µM | – | – | – | – | CCOC(=O)/C=C/c1cccc(NC(=S)Nc2ccccc2)c1 | 279 µM |
| 4.48 µM | 1.91 µM | – | – | – | – | CC(=O)OC[C@H]1O[C@@H](CC(=O)/C=C/c2cccc(NC(=S)Nc3ccccc3)c2)[C@H](OC(C)=O)[C@@H](OC(C)=O)[C@@H]1OC(C)=O | 337 µM |
